Measured values as given in patent publication US10167262B2, “Herbicidal substituted 3-arylpyrazoles” (FMC CORPORATION, priority 2014, dated 2019).

Tests used:
Type in all cases: in vivo
[1] = test system: Italian ryegrass (Lolium multiflorum); test: Test C pre-/postemergence greenhouse test, plant response rating 0-100
Outline: (§1)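 Seeds were sown in a loam soil–sand blend and sprayed preemergence with test chemicals in a non-phytotoxic solvent mixture containing surfactant; postemergence plants in peat/vermiculite medium were treated at 2–18 cm (1- to 4-leaf stage). After 13 to 15 days in the greenhouse, injury was rated visually against untreated controls.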

[2] = test system: corn (Zea mays); test: as above
Outline: as §1

[3] = test system: galium (catchweed bedstraw, Galium aparine); test: as above
Outline: as §1

[4] = test system: giant foxtail (Setaria faberii); test: as above
Outline: as §1

[5] = test system: johnsongrass (Sorghum halepense); test: as above
Outline: as §1

[6] = test system: lambsquarters (Chenopodium album); test: as above
Outline: as §1

[7] = test system: pigweed (Amaranthus retroflexus); test: as above
Outline: as §1

[8] = test system: soybean (Glycine max); test: as above
Outline: as §1

[9] = test system: winter wheat (Triticum aestivum); test: as above
Outline: as §1

[10] = test system: yellow nutsedge (Cyperus esculentus); test: as above
Outline: as §1

[11] = test system: chickweed (common chickweed, Stellaria media); test: Test C postemergence greenhouse test, plant response rating 0-100; details: for Plant response rating, Chickweed: scale 0 to 100
From the text: (§2) At the same time, plants selected from these crop and weed species and also winter barley (Hordeum vulgare), bermudagrass (Cynodon dactylon), downy bromegrass (Bromus tectorum), canarygrass (Phalaris minor), cocklebur (common cocklebur, Xanthium strumarium), woolly cupgrass (Eriochloa villosa), deadnettle (henbit deadnettle, Lamium amplexicaule), green foxtail (Setaria viridis), goosegrass (Eleusine indica), surinam grass (Brachiaria decumbens), windgrass (Apera spica-venti), chickweed (common chickweed, Stellaria media), kochia (Kochia scoparia), and wild oat (Avena fatua), were planted in pots containing Redi-Earth® planting medium (Scotts Company, 14111 Scottslawn Road, Marysville, Ohio 43041) comprising spaghnum peat moss, vermiculite, wetting agent and starter nutrients and treated with postemergence applications of test chemicals formulated in the same manner. Plants ranged in height from 2 to 18 cm (1- to 4-leaf stage) for postemergence treatments. Treated plants and controls were maintained in a greenhouse for 13 to 15 days, after which time all species were compared to controls and visually evaluated. Plant response ratings, summarized in Table C, are based on a scale of 0 to 100 where 0 is no effect and 100 is complete control. A dash (-) response means no test result.

[12] = test system: kochia (Kochia scoparia); test: as above; details: for Plant response rating, Kochia: scale 0 to 100
From the text: as §2

[13] = test system: wild oat (Avena fatua); test: as above; details: for Plant response rating, Oat, Wild: scale 0 to 100
From the text: as §2

[14] = Postemergence, 250 g ai/ha, scale 0 to 100
[15] = Postemergence, 500 g ai/ha, scale 0 to 100
[16] = Preemergence, 0 to 100 scale (0 no effect, 100 complete control), rate 500 g ai/ha per head r3, sub-head of this section not shown

Compound: O=C(c1ccccc1)c1cn(S(=O)(=O)CC(F)(F)F)nc1-c1cc(Cl)cc(Cl)c1 [Compound 3]
- Plant response rating (0 to 100), Ryegrass, Italian ([1]; Postemergence, 62 g ai/ha): 0
- Plant response rating (0 to 100), Ryegrass, Italian ([1]; Postemergence, 125 g ai/ha): 0
- Plant response rating, Ryegrass, Italian [1, 14]: 0
- Plant response rating, Ryegrass, Italian [1, 15]: 0
- Plant response rating, Ryegrass, Italian ([1]; Preemergence, 62 g ai/ha): 0
- Plant response rating, Ryegrass, Italian ([1]; Preemergence, 125 g ai/ha): 0
- Plant response rating, Ryegrass, Italian ([1]; Preemergence, 250 g ai/ha): 0
- Plant response rating, Ryegrass, Italian ([1]; Preemergence, 500 g ai/ha): 0
- Plant response rating, Ryegrass, Italian [1, 16]: 0
- Plant response rating (0 to 100), Corn ([2]; Postemergence, 62 g ai/ha): 0
- Plant response rating (0 to 100), Corn ([2]; Postemergence, 125 g ai/ha): 5
- Plant response rating, Corn [2, 14]: 5
- Plant response rating, Corn [2, 15]: 5
- Plant response rating, Corn ([2]; Preemergence, 62 g ai/ha): 0
- Plant response rating, Corn ([2]; Preemergence, 125 g ai/ha): 0
- Plant response rating, Corn ([2]; Preemergence, 250 g ai/ha): 0
- Plant response rating, Corn ([2]; Preemergence, 500 g ai/ha): 0
- Plant response rating (0 to 100), Galium ([3]; Postemergence, 62 g ai/ha): 0
- Plant response rating (0 to 100), Galium ([3]; Postemergence, 125 g ai/ha): 0
- Plant response rating, Galium [3, 14]: 20
- Plant response rating, Galium [3, 15]: 30
- Plant response rating, Galium ([3]; Preemergence, 62 g ai/ha): 0
- Plant response rating, Galium ([3]; Preemergence, 125 g ai/ha): 0
- Plant response rating, Galium ([3]; Preemergence, 250 g ai/ha): 0
- Plant response rating, Galium ([3]; Preemergence, 500 g ai/ha): 0
- Plant response rating (0 to 100), Foxtail, Giant ([4]; Postemergence, 62 g ai/ha): 0
- Plant response rating (0 to 100), Foxtail, Giant ([4]; Postemergence, 125 g ai/ha): 0
- Plant response rating, Foxtail, Giant [4, 14]: 0
- Plant response rating, Foxtail, Giant [4, 15]: 0
- Plant response rating, Foxtail, Giant ([4]; Preemergence, 62 g ai/ha): 0
- Plant response rating, Foxtail, Giant ([4]; Preemergence, 125 g ai/ha): 0
- Plant response rating, Foxtail, Giant ([4]; Preemergence, 250 g ai/ha): 0
- Plant response rating, Foxtail, Giant ([4]; Preemergence, 500 g ai/ha): 0
- Plant response rating (0 to 100), Johnsongrass ([5]; Postemergence, 62 g ai/ha): 0
- Plant response rating (0 to 100), Johnsongrass ([5]; Postemergence, 125 g ai/ha): 0
- Plant response rating, Johnsongrass [5, 14]: 0
- Plant response rating, Johnsongrass [5, 15]: 0
- Plant response rating, Johnsongrass ([5]; Preemergence, 62 g ai/ha): 0
- Plant response rating, Johnsongrass ([5]; Preemergence, 125 g ai/ha): 0
- Plant response rating, Johnsongrass ([5]; Preemergence, 250 g ai/ha): 0
- Plant response rating, Johnsongrass ([5]; Preemergence, 500 g ai/ha): 0
- Plant response rating (0 to 100), Lambsquarters ([6]; Postemergence, 62 g ai/ha): 55
- Plant response rating, Lambsquarters [6, 14]: 80
- Plant response rating, Lambsquarters [6, 15]: 100
- Plant response rating, Lambsquarters ([6]; Preemergence, 62 g ai/ha): 100
- Plant response rating, Lambsquarters ([6]; Preemergence, 125 g ai/ha): 100
- Plant response rating, Lambsquarters ([6]; Preemergence, 250 g ai/ha): 100
- Plant response rating, Lambsquarters ([6]; Preemergence, 500 g ai/ha): 100
- Plant response rating (0 to 100), Pigweed ([7]; Postemergence, 62 g ai/ha): 85
- Plant response rating (0 to 100), Pigweed ([7]; Postemergence, 125 g ai/ha): 95
- Plant response rating, Pigweed [7, 14]: 100
- Plant response rating, Pigweed ([7]; Preemergence, 62 g ai/ha): 30
- Plant response rating, Pigweed ([7]; Preemergence, 125 g ai/ha): 100
- Plant response rating, Pigweed ([7]; Preemergence, 250 g ai/ha): 100
- Plant response rating, Pigweed ([7]; Preemergence, 500 g ai/ha): 100
- Plant response rating (0 to 100), Soybean ([8]; Postemergence, 62 g ai/ha): 0
- Plant response rating (0 to 100), Soybean ([8]; Postemergence, 125 g ai/ha): 0
- Plant response rating, Soybean [8, 14]: 0
- Plant response rating, Soybean [8, 15]: 0
- Plant response rating, Soybean ([8]; Preemergence, 62 g ai/ha): 0
- Plant response rating, Soybean ([8]; Preemergence, 125 g ai/ha): 0
- Plant response rating, Soybean ([8]; Preemergence, 250 g ai/ha): 0
- Plant response rating, Soybean ([8]; Preemergence, 500 g ai/ha): 0
- Plant response rating, Soybean [8, 16]: 0
- Plant response rating (0 to 100), Wheat ([9]; Postemergence, 62 g ai/ha): 0
- Plant response rating (0 to 100), Wheat ([9]; Postemergence, 125 g ai/ha): 0
- Plant response rating, Wheat [9, 14]: 0
- Plant response rating, Wheat [9, 15]: 0
- Plant response rating, Wheat ([9]; Preemergence, 62 g ai/ha): 0
- Plant response rating, Wheat ([9]; Preemergence, 125 g ai/ha): 0
- Plant response rating, Wheat ([9]; Preemergence, 250 g ai/ha): 0
- Plant response rating, Wheat ([9]; Preemergence, 500 g ai/ha): 0
- Plant response rating, Wheat ([9]; Preemergence, 0 to 100 scale (0 no effect, 100 complete control), rate 500 g ai/ha): 0
- Plant response rating (0 to 100), Nutsedge, Yellow ([10]; Postemergence, 62 g ai/ha): 0
- Plant response rating (0 to 100), Nutsedge, Yellow ([10]; Postemergence, 125 g ai/ha): 0
- Plant response rating, Nutsedge, Yellow [10, 14]: 0
- Plant response rating, Nutsedge, Yellow [10, 15]: 0
- Plant response rating, Nutsedge, Yellow ([10]; Preemergence, 62 g ai/ha): 0
- Plant response rating, Nutsedge, Yellow ([10]; Preemergence, 125 g ai/ha): 0
- Plant response rating, Nutsedge, Yellow ([10]; Preemergence, 250 g ai/ha): 0
- Plant response rating, Nutsedge, Yellow ([10]; Preemergence, 500 g ai/ha): 0
- Plant response rating (0 to 100), Chickweed ([11]; 62 g ai/ha): 100
- Plant response rating (0 to 100), Chickweed ([11]; 125 g ai/ha): 100
- Plant response rating, Chickweed ([11]; 250 g ai/ha): 100
- Plant response rating, Chickweed ([11]; 500 g ai/ha): 100
- Plant response rating (0 to 100), Kochia ([12]; 62 g ai/ha): 80
- Plant response rating (0 to 100), Kochia ([12]; 125 g ai/ha): 85
- Plant response rating, Kochia ([12]; 250 g ai/ha): 85
- Plant response rating, Kochia ([12]; 500 g ai/ha): 85
- Plant response rating (0 to 100), Oat, Wild ([13]; 62 g ai/ha): 0
- Plant response rating (0 to 100), Oat, Wild ([13]; 125 g ai/ha): 0
- Plant response rating, Oat, Wild ([13]; 250 g ai/ha): 0
- Plant response rating, Oat, Wild ([13]; 500 g ai/ha): 0
